# Source: US5397774A, “Pyrazolopyrimidine and pyrimidinyl bisphosphonic esters as anti-inflammatories” (The Upjohn Company, priority 1993, dated 1995)
# System: DTH granuloma (DTH GRA) lesion in mBSA-sensitized mice
# Assay: Delayed Type Hypersensitivity Granuloma Assay (DTH GRA) model for inflammation
# Format: in vivo, mouse
# Details: for % Inhibition / inhibition in vivo at 10 mg/kg: 10 mg/kg PO, mouse DTH granuloma excised after nine days; for inhibition in vivo at 10 mg/kg / inhibition in vivo at 50 mg/kg: 216 h; for inhibition in vivo at 50 mg/kg: PO, footnote a: tested at 50 mg/kg
# Experimental: This assay is described by Dunn, C.
# Briefly, mBSA-sensitized mice have a DTH granuloma (DTH GRA) lesion induced by subcutaneously implanting a mBSA-soaked filter which is excised after nine days. Compounds are administered to the mice to determine their effect on the lesions. The results are recorded as percent inhibition. […] Inhibition of 10 to 20% is considered to indicate anti-granuloma activity.
# Again, as in Table 1, the results are recorded as percent inhibition. […] Inhibition of 10 to 20% is considered to indicate anti-granuloma activity. […]
# [1] = Mus musculus, po, Table 1, Formula 1 compounds
# [2] = Mus musculus, po, Table 2, Formula 2 compounds
# [3] = Table 2, Formula 2 compounds, 10 mg/kg
compound,measurement,setting,value
3-(7-Chloro-3-(2-fluoro-phenyl)-4(3H)-quinazolinone)-propylidine)bisphosphonic acid tetraethyl ester [qq],% Inhibition,"Table 2, Formula 2 compounds",29%
"3-(7-Chloro-3-(α,α,α-trifluoro-o-tolyl)-4(3H)-quinazolinone)-propylidine)bisphosphonic acid tetraethyl ester [pp]",% Inhibition,"Table 2, Formula 2 compounds",24%
"CCOP(=O)(OCC)C(CCc1cc(C)nc2c(C#N)c(C)nn12)P(=O)(OCC)OCC [a, (3-(3-Cyano-2,5-dimethyl-pyrazolo(1,5-a)pyrimidin-7-yl)propylidene)bisphosphonic acid tetraethyl ester]",inhibition in vivo at 10 mg/kg,[1],46%
"CCOP(=O)(OCC)C(CCc1nc(-c2ccc(Br)cc2)cc(=O)n1C)P(=O)(OCC)OCC [aa, (3-(2-(3-Methyl-4-oxo-6-(4-bromophenyl)-4(3H)-pyrimidinyl))-propylidine)bisphosphonic acid tetraethyl ester]",inhibition in vivo at 10 mg/kg,[2],20%
"CCOP(=O)(OCC)C(CCc1nc(-c2ccc(OC)cc2)cc(=O)n1C)P(=O)(OCC)OCC [bb, (3-(2-(3-Methyl-4-oxo-6-(4-methoxyphenyl)-4(3H)-pyrimidinyl))-propylidine)bisphosphonic acid tetraethyl ester]",inhibition in vivo at 10 mg/kg,[2],22%
"CCOP(=O)(OCC)C(CCc1cc(C)nc2c(C#N)c(-c3ccccc3)nn12)P(=O)(OCC)OCC [c, (3-(3-Cyano-5-methyl-2-phenyl-pyrazolo(1,5-a)pyrimidin-7-yl)-propylidene)bisphosphonic acid tetraethyl ester]",inhibition in vivo at 10 mg/kg,[1],26%
"CCOP(=O)(OCC)C(CCc1nc(-c2ccc(N(C)C)cc2)cc(=O)n1C)P(=O)(OCC)OCC [cc, (3-(2-(3-Methyl-4-oxo-6-(4-dimethylaminophenyl)-4(3H)-pyrimidinyl))-propylidine)bisphosphonic acid tetraethyl ester]",inhibition in vivo at 10 mg/kg,[2],63%
"CCOP(=O)(OCC)C(CCc1cc(C)nc2c(Br)c(C)nn12)P(=O)(OCC)OCC [d, (3-(3-Bromo-2,5-dimethyl-pyrazolo(1,5-a)pyrimidin-7-yl)-propylidene)bisphosphonic acid tetraethyl ester]",inhibition in vivo at 10 mg/kg,[1],44%
"CCOP(=O)(OCC)C(CCc1cc(C)nc2c([N+](=O)[O-])c(C)nn12)P(=O)(OCC)OCC [e, (3-(3-Nitro-2,5-dimethyl-pyrazolo(1,5-a)pyrimidin-7-yl)-propylidene)bisphosphonic acid tetraethyl ester]",inhibition in vivo at 10 mg/kg,[1],41%
"CCOc1ccc(-c2cc(=O)n(C)c(CCC(P(=O)(OCC)OCC)P(=O)(OCC)OCC)n2)cc1 [ee, (3-(2-(3-Methyl-4-oxo-6-(4-ethoxyphenyl)-4(3H)-pyrimidinyl))-propylidine)bisphosphonic acid tetraethyl ester]",inhibition in vivo at 10 mg/kg,[2],46%
"CCOP(=O)(OCC)C(CCc1cc(C)nc2cc(OC(=O)c3ccccc3)nn12)P(=O)(OCC)OCC [f, (3-(2-Benzoyloxy-5-methyl-pyrazolo(1,5-a)pyrimidin-7-yl)-propylidene)bisphosphonic acid tetraethyl ester]",inhibition in vivo at 10 mg/kg,[1],41%
"CCOP(=O)(OCC)C(CCc1cc(C)nc2cc(OCc3ccccc3)nn12)P(=O)(OCC)OCC [g, (3-(2-Benzyloxy-5-methyl-pyrazolo(1,5-a)pyrimidin-7-yl)-propylidene)bisphosphonic acid tetraethyl ester]",inhibition in vivo at 10 mg/kg,[1],44%
"CCOP(=O)(OCC)C(CCc1nc(-c2ccccc2)cc(=O)n1Cc1ccccc1)P(=O)(OCC)OCC [gg, (3-(2-(3-Benzyl-4-oxo-6-phenyl-4(3H)-pyrimidinyl))-propylidine)bisphosphonic acid tetraethyl ester]",% Inhibition,[3],20%
"CCCCCCOc1cc2nc(C)cc(CCC(P(=O)(OCC)OCC)P(=O)(OCC)OCC)n2n1 [h, (3-(2-Hexyloxy-5-methyl-pyrazolo(1,5-a)pyrimidin-7-yl)propylidene)-bisphosphonic acid tetraethyl ester]",inhibition in vivo at 10 mg/kg,[1],49%
"C=CCn1c(CCC(P(=O)(OCC)OCC)P(=O)(OCC)OCC)nc(-c2ccccc2)cc1=O [hh, (3-(2-(3-Allyl-4-oxo-6-phenyl-4(3H)-pyrimidinyl))-propylidine)bisphosphonic acid tetraethyl ester]",% Inhibition,[3],11%
"CCOP(=O)(OCC)C(CCc1cc(C)nc2cc(-c3ccccc3)nn12)P(=O)(OCC)OCC [i, (3-(5-Methyl-2-phenyl-pyrazolo(1,5-a)pyrimidin-7-yl)-propylidene)bisphosphonic acid tetraethyl ester]",inhibition in vivo at 10 mg/kg,[1],47%
"CCOP(=O)(OCC)C(CCc1nc(-c2ccccc2)cc(=O)n1CC)P(=O)(OCC)OCC [ii, (3-(2-(3-Ethyl-4-oxo-6-phenyl-4(3H)-pyrimidinyl))-propylidine)bisphosphonic acid tetraethyl ester]",inhibition in vivo at 10 mg/kg,[2],12%
"CCOP(=O)(OCC)C(CCc1cc(C)nc2c(I)c(-c3ccccc3)nn12)P(=O)(OCC)OCC [j, (3-(3-Iodo-5-methyl-2-phenyl-pyrazolo(1,5-a)pyrimidin-7-yl)-propylidene)bisphosphonic acid tetraethyl ester]",inhibition in vivo at 10 mg/kg,[1],53%
"CCCn1c(CCC(P(=O)(OCC)OCC)P(=O)(OCC)OCC)nc(-c2ccccc2)cc1=O [jj, (3-(2-(3-Propyl-4-oxo-6-phenyl-4(3H)-pyrimidinyl))-propylidine)bisphosphonic acid tetraethyl ester]",inhibition in vivo at 10 mg/kg,[2],41%
"CCOP(=O)(OCC)C(CCc1cc(C)nc2c(Cl)c(-c3ccccc3)nn12)P(=O)(OCC)OCC [k, (3-(3-Chloro-5-methyl-2-phenyl-pyrazolo(1,5-a)pyrimidin-7-yl)-propylidene)bisphosphonic acid tetraethyl ester]",inhibition in vivo at 50 mg/kg,[1],31%
"CCOP(=O)(OCC)C(CCc1cc(C)nc2c(Br)c(-c3ccccc3)nn12)P(=O)(OCC)OCC [l, (3-(3-Bromo-5-methyl-2-phenyl-pyrazolo(1,5-a)pyrimidin-7-yl)-propylidene)bisphosphonic acid tetraethyl ester]",inhibition in vivo at 50 mg/kg,[1],23%
"COP(=O)(OC)C(CCc1cc(C)nc2c(C#N)c(C)nn12)P(=O)(OC)OC [m, (3-(3-Cyano-2,5-dimethyl-pyrazolo(1,5-a)pyrimidin-7-yl)-propylidene)bisphosphonic acid tetramethyl ester]",inhibition in vivo at 10 mg/kg,[1],41%
"Cn1c(CCC(P2(=O)OCC(C)(C)CO2)P2(=O)OCC(C)(C)CO2)nc(-c2cc(F)c(N3CCCCC3)c(F)c2F)cc1=O [mm, (3-(2-(3-Methyl-4-oxo-6-(2,3,5-trifluoro-4-piperidinophenyl)-4(3H)-pyrimidinyl))-propylidine)bis(5,5-dimethyl-2,2'-dioxide-1,3,2-dioxaphosphorinane)]",inhibition in vivo at 10 mg/kg,"Table 2, Formula 2 compounds",50%
"Cc1cc(CCC(P2(=O)OCC(C)(C)CO2)P2(=O)OCC(C)(C)CO2)n2nc(C)c(C#N)c2n1 [n, (3-(3-Cyano-2,5-dimethyl-pyrazolo(1,5-a)pyrimidin-7-yl)-propylidene)bis(5,5-dimethyl-2,2'-dioxide-1,3,2-dioxaphosphorinane)]",inhibition in vivo at 10 mg/kg,"Table 1, Formula 1 compounds",45%
"CCOP(=O)(OCC)C(CCc1c(Cl)c(C)nc2c(C#N)c(C)nn12)P(=O)(OCC)OCC [o, (3-(6-Chloro-3-cyano-2,5-dimethyl-pyrazolo(1,5-a)pyrimidin-7-yl)-propylidene)bisphosphonic acid tetraethyl ester]",inhibition in vivo at 10 mg/kg,[1],53%
CCOP(=O)(OCC)C(CCc1nc2cc(Cl)ccc2c(=O)n1C)P(=O)(OCC)OCC [oo],% Inhibition,"Table 2, Formula 2 compounds",41%
